# Source: patent US12391648B2, “Pyridyloxy thioester derivative and preparation method therefor, herbicidal composition, and application” (Qingdao Kingagroot Chemical Compound Co., Ltd., priority 2018, dated 2025)
# Tests used:
# Experiment in all cases: Post-emergence test experiment (Table 3, 1000 g/ha)
# Format in all cases: in vivo
# Conditions in all cases: post-emergence spray, after 3 weeks, fresh weight inhibition
# [1] = system: Setaria viridis
# Outline: (§1)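 Weed seeds sown in soil-filled pots in greenhouse, sprayed at 2-3 leaf stage (2 weeks after sowing) with compound in acetone/tween-80 plus methyl oleate emulsible concentrate (1.5 L/ha) diluted in water. Fresh-weight growth inhibition scored after 3 weeks on 0-5 scale (5: >85%, 0: <5%).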
# [2] = system: Galium spurium
# Outline: as §1
# [3] = system: Abutilon theophrasti
# Outline: as §1
# [4] = system: Digitaria sanguinalis
# Outline: as §1
# [5] = system: Monochoria vaginalis
# Outline: as §1
# [6] = system: Leptochloa chinensis
# Outline: as §1
SMILES,Activity level (growth inhibition rate) Setaria viridis [1],Activity level (growth inhibition rate) Galium spurium [2],Activity level (growth inhibition rate) Abutilon theophrasti [3],Activity level (growth inhibition rate) Digitaria sanguinalis [4],Activity level (growth inhibition rate) Monochoria Vaginalis [5],Activity level (growth inhibition rate) Leptochloa chinensis [6]
CC(Oc1nc(F)c(Cl)c(N)c1Cl)C(=O)SC(N)C(=O)O (stereo not drawn) [Compound 103],5 (Level 5: the growth inhibition rate is greater than 85%),5 (Level 5: the growth inhibition rate is greater than 85%),5 (Level 5: the growth inhibition rate is greater than 85%),5 (Level 5: the growth inhibition rate is greater than 85%),5 (Level 5: the growth inhibition rate is greater than 85%),5 (Level 5: the growth inhibition rate is greater than 85%)
CC(Oc1nc(F)c(Cl)c(N)c1Cl)C(=O)Sc1ccncc1 (stereo not drawn) [Compound 116],5 (Level 5: the growth inhibition rate is greater than 85%),5 (Level 5: the growth inhibition rate is greater than 85%),5 (Level 5: the growth inhibition rate is greater than 85%),5 (Level 5: the growth inhibition rate is greater than 85%),5 (Level 5: the growth inhibition rate is greater than 85%),5 (Level 5: the growth inhibition rate is greater than 85%)
CCCc1c(F)nc(OC(C)C(=O)SC)c(C2CC2)c1N (stereo not drawn) [Compound 14],5 (Level 5: the growth inhibition rate is greater than 85%),5 (Level 5: the growth inhibition rate is greater than 85%),5 (Level 5: the growth inhibition rate is greater than 85%),5 (Level 5: the growth inhibition rate is greater than 85%),5 (Level 5: the growth inhibition rate is greater than 85%),5 (Level 5: the growth inhibition rate is greater than 85%)
CC(Oc1nc(F)c(Cl)c(N)c1Cl)C(=O)Sc1cccc(N(C)C)c1 (stereo not drawn) [Compound 109],5 (Level 5: the growth inhibition rate is greater than 85%),5 (Level 5: the growth inhibition rate is greater than 85%),5 (Level 5: the growth inhibition rate is greater than 85%),5 (Level 5: the growth inhibition rate is greater than 85%),5 (Level 5: the growth inhibition rate is greater than 85%),5 (Level 5: the growth inhibition rate is greater than 85%)
CC(Oc1nc(F)c(Cl)c(N)c1Cl)C(=O)SCC(F)F (stereo not drawn) [Compound 157],5 (Level 5: the growth inhibition rate is greater than 85%),5 (Level 5: the growth inhibition rate is greater than 85%),5 (Level 5: the growth inhibition rate is greater than 85%),5 (Level 5: the growth inhibition rate is greater than 85%),5 (Level 5: the growth inhibition rate is greater than 85%),5 (Level 5: the growth inhibition rate is greater than 85%)
COSC(=O)C(C)Oc1nc(F)c(Cl)c(N)c1Cl (stereo not drawn) [Compound 83],5 (Level 5: the growth inhibition rate is greater than 85%),5 (Level 5: the growth inhibition rate is greater than 85%),5 (Level 5: the growth inhibition rate is greater than 85%),5 (Level 5: the growth inhibition rate is greater than 85%),5 (Level 5: the growth inhibition rate is greater than 85%),5 (Level 5: the growth inhibition rate is greater than 85%)
CSC(=O)C(C)Oc1nc(F)c(Cl)c(N)c1C (stereo not drawn) [Compound 20],5 (Level 5: the growth inhibition rate is greater than 85%),5 (Level 5: the growth inhibition rate is greater than 85%),5 (Level 5: the growth inhibition rate is greater than 85%),5 (Level 5: the growth inhibition rate is greater than 85%),5 (Level 5: the growth inhibition rate is greater than 85%),5 (Level 5: the growth inhibition rate is greater than 85%)
CCCCCCCSC(=O)C(C)Oc1nc(F)c(Cl)c(N)c1Cl (stereo not drawn) [Compound 139],5 (Level 5: the growth inhibition rate is greater than 85%),5 (Level 5: the growth inhibition rate is greater than 85%),5 (Level 5: the growth inhibition rate is greater than 85%),5 (Level 5: the growth inhibition rate is greater than 85%),5 (Level 5: the growth inhibition rate is greater than 85%),5 (Level 5: the growth inhibition rate is greater than 85%)
CC(Oc1nc(F)c(Cl)c(N)c1Cl)C(=O)Sc1cn(C)cn1 (stereo not drawn) [Compound 123],5 (Level 5: the growth inhibition rate is greater than 85%),5 (Level 5: the growth inhibition rate is greater than 85%),5 (Level 5: the growth inhibition rate is greater than 85%),5 (Level 5: the growth inhibition rate is greater than 85%),5 (Level 5: the growth inhibition rate is greater than 85%),5 (Level 5: the growth inhibition rate is greater than 85%)
CSC(=O)C(C)Oc1nc(F)c(Cl)c(NC(=O)c2ccccc2)c1Cl (stereo not drawn) [Compound 131],5 (Level 5: the growth inhibition rate is greater than 85%),5 (Level 5: the growth inhibition rate is greater than 85%),5 (Level 5: the growth inhibition rate is greater than 85%),5 (Level 5: the growth inhibition rate is greater than 85%),5 (Level 5: the growth inhibition rate is greater than 85%),5 (Level 5: the growth inhibition rate is greater than 85%)
CC(Oc1nc(F)c(Cl)c(N)c1Cl)C(=O)SCC(F)(F)F (stereo not drawn) [Compound 78],5 (Level 5: the growth inhibition rate is greater than 85%),5 (Level 5: the growth inhibition rate is greater than 85%),5 (Level 5: the growth inhibition rate is greater than 85%),5 (Level 5: the growth inhibition rate is greater than 85%),5 (Level 5: the growth inhibition rate is greater than 85%),5 (Level 5: the growth inhibition rate is greater than 85%)
CSC(=O)C(C)Oc1nc(F)c(Cl)c(NCc2ccc(C(F)(F)F)o2)c1Cl (stereo not drawn) [Compound 161],5 (Level 5: the growth inhibition rate is greater than 85%),5 (Level 5: the growth inhibition rate is greater than 85%),5 (Level 5: the growth inhibition rate is greater than 85%),5 (Level 5: the growth inhibition rate is greater than 85%),5 (Level 5: the growth inhibition rate is greater than 85%),5 (Level 5: the growth inhibition rate is greater than 85%)
CSC(=O)C(C)Oc1nc(F)c(Cl)c(NC(C)=O)c1Cl (stereo not drawn) [Compound 129],5 (Level 5: the growth inhibition rate is greater than 85%),5 (Level 5: the growth inhibition rate is greater than 85%),5 (Level 5: the growth inhibition rate is greater than 85%),5 (Level 5: the growth inhibition rate is greater than 85%),5 (Level 5: the growth inhibition rate is greater than 85%),5 (Level 5: the growth inhibition rate is greater than 85%)
CC(Oc1nc(F)c(Cl)c(N)c1Cl)C(=O)Sc1cccc(C(C)C)c1 (stereo not drawn) [Compound 113],5 (Level 5: the growth inhibition rate is greater than 85%),5 (Level 5: the growth inhibition rate is greater than 85%),5 (Level 5: the growth inhibition rate is greater than 85%),5 (Level 5: the growth inhibition rate is greater than 85%),5 (Level 5: the growth inhibition rate is greater than 85%),5 (Level 5: the growth inhibition rate is greater than 85%)
